Values of other authors as cited in patent US20170151272A1, “A NOVEL PHARMACEUTICAL COMPOSITION OF […] RIBAVIRIN” (SANOVEL ILAC SANAYI VE TICARET ANONIM SIRKETI, priority 2014, published 2017).

System: chronic hepatitis C (CHC) infections
Details: ribavirin alone

1-β-Dribofuranosyl-1H-1,2,4-triazole-3-carboxamide [Ribavirin]
sustained virologic response: did not produce any sustained virologic response | HCV RNA levels (during or after therapy): did not reduce | alanine aminotransferase (ALT) levels (during the course of treatment, some patients with CHC): normalize W201 alanine aminotransferase (ALT) levels transiently
